In US20220370465A1, “TREATMENT OF MAST CELL DISEASES AND EOSINOPHILIC DISORDERS” (Blueprint Medicines Corporation, priority 2019, published 2022):

What was measured:
[1] = system: tyrosine kinase inhibitor (TKI)-resistant mastocytoma model; assay: TKI-resistant mastocytoma model in vivo
mast cells = assay: Mast cell activation, proliferation and survival; type: cell-based
Text: In a specific embodiment, the D816 mutation is D816V. In another specific embodiment, the D816 mutation is D816Y. […] In some embodiments, the inhibition is in a dose-dependent manner. […] Current treatment paradigms for mast cell diseases focus on inhibiting individual mast cell mediators for symptom control (anti-histamines, anti-IgE antibodies, etc.), or on using KIT exon 17 inhibitors in KIT mutant mMCAS.

SMILES: Cn1cc(-c2cc3c(N4CCN(c5ncc([C@@](C)(N)c6ccc(F)cc6)cn5)CC4)ncnn3c2)cn1 [Compound (I), (5)-1-(4-fluorophenyl)-1-(2-(4-(6-(1-methyl-1H-pyrazol-4-yl)pyrrolo[2,1-f][1,2,4]triazin-4-yl)piperazin-yl)pyrimidin-5-yl)ethan-1-amine]
- growth inhibition in mastocytoma model [1]: robust growth inhibition
- mast cell activation (mast cells): inhibits mast cell activation
- mast cell proliferation (mast cells): inhibits mast cell proliferation
- survival of mast cells (mast cells): does not interfere with the survival of mast cells
